Data: patent US20210283087A1, “METHOD FOR TREATING AND RELIEVING MYOPIA” (China Medical University, priority 2014, published 2021)

Legend:
Retinal cell (R28) = assay: Gene expression by real-time PCR in LPS-treated R28 retinal cells; type: cell-based, rat
Description: (§1) R28 rat retinal epithelial cells were provided by Gail Seigel at the Ross Eye Institute (SUNY, Buffalo, N.Y., USA). The cells were cultured in Dulbecco's modified Eagle's medium (DMEM) with 10% fetal bovine serum (FBS) at 37° C. and 5% CO2, with medium replacement every 3 days to 4 days. Sclera were placed in a 60-mm culture dish in DMEM supplemented with 10% FBS to isolate primary scleral fibroblasts; those from fewer than three passages were used in experiments. […] Cell lysates were collected for quantitative (q)PCR to determine gene expression levels.
(§2) Total RNA was extracted using the RNeasy MiniKit (Qiagen, Valencia, Calif., USA), and 5 μg of RNA was reverse-transcribed to cDNA by using the Superscript First Strand Synthesis system (Invitrogen, Carlsbad, Calif., USA). Primers and probes used for qPCR were selected from the Universal Probes Library (Roche, West Sussex, UK). Transcript levels were normalized to those of glyceraldehyde 3-phosphate dehydrogenase in each sample.

[1] = test system: ARPE-19 human retinal pigment epithelial cells; assay: Western blot of LPS-induced signaling in ARPE-19 cells (atropine); type: cell-based; details: LPS + 100 μM atropine
Description: ARPE-19 human retinal pigment epithelial cells were obtained from the Bioresource Collection and Research Center, HsinChu, Taiwan (BCRC; BCRC-60383). Cells were cultured in DMEM with 10% FBS at 37° C. and 5% CO2, with medium replacement every 3 to 4 days. […] After treatment, 30 μg of total cell lysates was subjected to sodium dodecyl sulfate polyacrylamide gel electrophoresis (SDS-PAGE), followed by immunoblot analysis. Primary antibodies used included ERK (Thr202/Tyr204), AKT (Ser473), PI3K (p85[Tyr458]/p55[Tyr199]), NF-κB (p65, Ser536), and c-Fos (Ser32; Cell Signaling, Beverly, Mass., USA). Antirabbit or antimouse secondary antibody conjugated with horseradish peroxidase was also used. Immunoreactive protein bands were detected using an enhanced chemiluminescence kit (ECL, Pierce, Thermo Fisher Scientific, Pittsburgh, Pa., USA). Equal loading was confirmed through probing the blots with β-actin antibody (Abcam, Cambridge, Mass., USA) as well as anti-ERK, AKT, PI3K, NF-κB, and c-Fos.

[2] = test system: monocular form deprivation (MFD) Syrian hamster; assay: Refractive power in monocular form deprivation (MFD) hamster model, streak retinoscope; type: in vivo, golden Syrian hamsters; details: for Refractive power, BL: left eye before MFD / Refractive power, BR: right eye before MFD: baseline; for Refractive power, FL: left eye after MFD / Refractive power, FR: right eye after MFD (occluded eye): 21 days; for Refractive error FR-BR: MFD right eye; for Refractive error FL-BL: non-MFD left eye
Description: (§3) In this study, a total of 160 golden Syrian hamsters aged 3 weeks, weighing 80 to 90 g, and 20 albino guinea pigs, aged 2 to 3 weeks, were used for experiments. All animals were kept in a 12-hour light/dark cycle. All procedures were approved by the Institutional Animal Care and Use Committee of China Medical University and were conducted in accordance with the guidelines of the Use of Animals in Ophthalmic and Vision Research. Hamsters were raised with a right eyelid fusion for 21 days. Myopia was induced in the guinea pigs by covering the right eye with a cloth attached to the skin at a distance of at least 1 cm from the eye. MFD was induced in the right eye (with the left eye serving as a control) of animals randomly assigned to treatment or control groups (n=10 animals each) receiving daily applications of drug or phosphate-buffered saline (PBS), respectively, to both eyes.
The RE (i.e., spherical-component RE, which is defined as the mean RE in horizontal and vertical meridians) was measured using a hand-held streak retinoscope. Animals were anesthetized with 10% ether in O2. Ocular refraction was evaluated at the start and end of the experiment. At the end of the study, animals were sacrificed through CO2 asphyxiation according to the guidelines of the Public Health Service, Office of Laboratory Animal Welfare, National Institutes of Health, and American Association of Veterinary Medicine. Eyes were enucleated using a razor blade on an ice plate under a surgical microscope (Topcon, Tokyo, Japan) by cutting perpendicularly to the anterior-posterior axis approximately 1 mm posterior to the ora serrata. The iris and ciliary body of the anterior segment of the eye were separated. Posterior sclera was excised using a 7-mm-diameter trephine. The axial lengths were determined through A-scan ultrasonography (PacScan 300 Plus, NY, USA). The average of 10 unique measurements was used.

guinea pig with MFD = assay: Refractive power and axial length in guinea pig MFD model; type: in vivo, albino guinea pigs; details: MFD + 1% atropine; Day 21
Description: as §3
The RE (i.e., spherical-component RE, which is defined as the mean RE in horizontal and vertical meridians) was measured using a hand-held streak retinoscope. Animals were anesthetized with 10% ether in O2. Ocular refraction was evaluated at the start and end of the experiment. […] The axial lengths were determined through A-scan ultrasonography (PacScan 300 Plus, NY, USA). […]

[3] = test system: sclera and retina of hamster eyes; assay: Immunohistochemistry of hamster eyes (sclera, retina); type: in vivo
Description: Antigen retrieval was performed by boiling the slides in citrate buffer (pH 6.0); the sections were then stained with antibodies against IL-6, TNF-α, TGF-β, MMP2, c-Fos, NF-κB, and CHRM1 and 3. The EnVision System peroxidase kit (DAKO, Carpentaria, Calif., USA) was used to visualize immunoreactivity.

Sclera fibroblast = assay: Gene expression by real-time PCR in LPS-treated primary scleral fibroblasts; type: cell-based, hamster
Description: as §1, §2

[4] = R28, 100 ng/ml LPS and 100 μM atropine for 4 hours
[5] = Atropine 0.125%, listed as atropine
[6] = Atropine 0.5%, listed as atropine
[7] = Atropine 1%, listed as atropine
[8] = sclera fibroblast, 100 ng/ml LPS and 100 μM atropine for 4 hours

CN1[C@@H]2CC[C@H]1C[C@@H](OC(=O)C(CO)c1ccccc1)C2 (stereo partly shown) [Atropine, atropine]
Chrm5 gene expression level (Retinal cell (R28)): 0.78 ± 0.24 | Chrm 1 gene expression level (Retinal cell (R28); [4]): 0.65 ± 0.16 | Chrm 2 gene expression level (Retinal cell (R28); [4]): 1.96 ± 0.2 | Chrm 3 gene expression level (Retinal cell (R28); [4]): 0.78 ± 0.11 | Chrm 4 gene expression level (Retinal cell (R28); [4]): 0.81 ± 0.23 | Fos gene expression level (Retinal cell (R28); [4]): 0.76 ± 0.17 | IL1b gene expression level (Retinal cell (R28); [4]): 0.17 ± 0.24 | IL10 gene expression level (Retinal cell (R28); [4]): 1.81 ± 0.15 | IL-6 gene expression level (Retinal cell (R28); [4]): 0.86 ± 0.19 | MMP2 gene expression level (Retinal cell (R28); [4]): 0.75 ± 0.16 | NFkB gene expression level (Retinal cell (R28); [4]): 0.85 ± 0.08 | Tgfb1 gene expression level (Retinal cell (R28); [4]): 0.82 ± 0.11 | Tnfa gene expression level (Retinal cell (R28); [4]): 0.84 ± 0.24 | Activation of ERK through LPS and downstream c-FOS [1]: inhibited | LPS activation of PI3K, AKT, and NF-κB [1]: inhibited | Refractive power, BL: left eye before MFD ([2]; Atropine 0.125% group): 11.85 ± 0.18 D | Refractive power, BR: right eye before MFD ([2]; Atropine 0.125% group): 11.9 ± 0.07 D | Refractive power, FL: left eye after MFD ([2]; Atropine 0.125%): 8.32 ± 0.16 D | Refractive power, FR: right eye after MFD (occluded eye) ([2]; Atropine 0.125%): 6.45 ± 0.1 D | Refractive power, FL: left eye after MFD [2, 5]: 8.32±0.16 D | Refractive power, FR: right eye after MFD (occluded eye) [2, 5]: 6.45±0.1 D | Refractive error FR-BR ([2]; Atropine 0.125%): −5.45 ± 0.07 D | Refractive error FL-BL ([2]; Atropine 0.125%): −3.53 ± 0.28 D | Refractive power, BL: left eye before MFD ([2]; Atropine 0.5% group): 11.69 ± 0.13 D | Refractive power, BR: right eye before MFD ([2]; Atropine 0.5% group): 11.61 ± 0.1 D | Refractive power, FL: left eye after MFD ([2]; Atropine 0.5%): 8.58 ± 0.12 D | Refractive power, FR: right eye after MFD (occluded eye) ([2]; Atropine 0.5%): 6.72 ± 0.11 D | Refractive power, FL: left eye after MFD [2, 6]: 8.58±0.12 D | Refractive power, FR: right eye after MFD (occluded eye) [2, 6]: 6.72±0.11 D | Refractive error FR-BR ([2]; Atropine 0.5%): −4.89 ± 0.18 D | Refractive error FL-BL ([2]; Atropine 0.5%): −3.11 ± 0.19 D | Refractive power, BL: left eye before MFD ([2]; Atropine 1% group): 11.85 ± 0.18 D | Refractive power, BR: right eye before MFD ([2]; Atropine 1% group): 11.79 ± 0.15 D | Refractive power, FL: left eye after MFD ([2]; Atropine 1%): 10.79 ± 0.16 D | Refractive power, FR: right eye after MFD (occluded eye) ([2]; Atropine 1%): 7.06 ± 0.29 D | Refractive power, FL: left eye after MFD [2, 7]: 10.79±0.16 D | Refractive power, FR: right eye after MFD (occluded eye) [2, 7]: 7.06±0.29 D | Refractive error FR-BR ([2]; Atropine 1%): −4.74 ± 0.39 D | Refractive error FL-BL ([2]; Atropine 1%): −1.06 ± 0.22 D | Refractive power, left eye (control eye) (guinea pig with MFD): −1.50±0.82 D | Refractive power, right eye (myopic eye) (guinea pig with MFD): −6.79±1.00 D | IL-6 and TNF-α immunoreactivity in the retina of MFD eyes ([3]; 1% atropine): reduced | c-Fos and NF-κB expression in the retinas of MFD eyes ([3]; 1% atropine): suppressed | COL1 expression in the sclera of the MFD eye ([3]; 1% atropine compared with PBS): increased | MMP2 expression in the sclera of the MFD eye ([3]; 1% atropine compared with PBS): decreased | MFD upregulation of TGF-β level in retina and sclera ([3]; atropine): suppressed | IL-10 expression ([3]; atropine treatment): elevated | CHRM1 and CHRM 3 expression in MFD eyes ([3]; atropine treatment compared with PBS-treated MFD eyes): downregulated | Chrm5 gene expression level (Sclera fibroblast): 0.98 ± 0.12 | Chrm 1 gene expression level (Sclera fibroblast; [8]): 0.73 ± 0.11 | Chrm 2 gene expression level (Sclera fibroblast; [8]): 1.24 ± 0.14 | Chrm 3 gene expression level (Sclera fibroblast; [8]): 0.70 ± 0.23 | Chrm 4 gene expression level (Sclera fibroblast; [8]): 1.11 ± 0.17 | Fos gene expression level (Sclera fibroblast; [8]): 0.93 ± 0.17 | IL1b gene expression level (Sclera fibroblast; [8]): 0.75 ± 0.13 | IL10 gene expression level (Sclera fibroblast; [8]): 1.05 ± 0.21 | IL-6 gene expression level (Sclera fibroblast; [8]): 0.79 ± 0.18 | MMP2 gene expression level (Sclera fibroblast; [8]): 0.74 ± 0.19 | NFkB gene expression level (Sclera fibroblast; [8]): 0.36 ± 0.3 | Tgfb1 gene expression level (Sclera fibroblast; [8]): 0.48 ± 0.24 | Tnfa gene expression level (Sclera fibroblast; [8]): 0.80 ± 0.2
